Laboratory results taken from US11524956B2, “Alkyne substituted quinazoline compound and methods of use” (Newgen Therapeutics, Inc., priority 2011, dated 2022).
Read-outs that look alike come from different tables or passages of the source.

Legend:
NCI-N87 cells = experiment: Anti-proliferation assay of NCI-N87 cells (CCK-8); type: cell-based; details: Homo sapiens, 72h
Description: The anti-proliferative assays were performed in triplicates. 3000 cell/well of N87 cells were seeded in 96-well plate, and the cells were incubated for 24h at 37° C. to allow adherence. For the cell proliferation assay, N87 cells were cultured in full cell culture medium containing 0.3% v/v DMSO. A serials concentration of the tested compound (concentration range: 30 uM to 0.16 nM, 5-fold dilution) were added to the 96-welt plate. The incubation was continued for 72h. The culture medium was then removed, and the cell viability was measured by using CCK-8 cell proliferation kit as described in manual provided by the manufacturer. The log of the fractional growth inhibition was plotted against the log of the drug concentration, and the IC50 values were interpolated from the resulting linear regression curve fit. The IC50 value measured for Compound NT113 is <100 nM.

NCI-N87 xenograft = experiment: In vivo efficacy in NCI-N87 xenograft mouse model; details: for RTV T/C / tumor growth inhibition: day-7 after treatment
Description: NCI-N87 cell line was purchased from ATCC (American Type Culture Collection) and was cultured in RPMI1640+10% FBS+1% P/S antibiotics.
Male Balb/c nude mice, 6-8 week, 18±2 g (supplier: Shanghai SLAC Laboratory Animal Co. Ltd.) were used for the experiment. The purchased mice were adapted to the environment for 7 days before use, and were housed at 22-25° C. with humidity 40-70%, and light cycle with fluorescent light for 12-hour light (8:00-20:00) 12-hour dark. The mice have free access to food and water.
The cancer cells (NCI-N87) were implanted subcutaneous into the nude mice (right flank) with 5.0×10^6 cells in 0.1 ml PBS (50 mice). When the tumor size reaches a volume of 200 (150-200) mm^3, the tumor-bearing nude mice were randomly assigned into groups (10 mice/group), one group was served as vehicle, one group was administrated with Lapatinib ditosylate monohydrate (80 mg/kg, free base of Lapatinib, not salt, p.o. […]). The other two groups were administrated with NT113 (also referred to as KID 113) ((15 and 30 mg/kg, p.o.q.d, respectively). The administration period lasted for 4 weeks.
The mice were monitored twice daily for appearance and behavior, and for signs of morbidity and/or mortality. The tumor volume was measured twice a week, and the body weight was measured immediately before measuring the tumor volume throughout the whole study.
At end of the experiment (compound administration for four weeks), all the tumor-bearing mice were sacrificed by cervical dislocation under deep anesthesia. The tumor mass was resected, and weighed.
Tumor sizes were measured twice weekly in two dimensions using a caliper, and the volume was expressed in mm^3 using the formula: V=½×a×b^2 where a and b are the long and short diameters of the tumor, respectively. The tumor mass was weighed at the end of the experiment after harvested.
V=½×a×b^2 (a, h is maximum and minimum diameters respectively).
RTV (Relative Tumor Volume)=Vt/Vo • Vo is the tumor volume when the test article is initial administrated • Vt is the tumor volume of every measurement day after test article administration
T/C (%)=TRTV/CRTV×100% • TRTV: RTV of test article-treatment group; CRTV: RTV of control group Inhibition rate (%)=(average tumor volume of control group average cancer volume of test article treatment group)/average tumor volume of control group×100%
The tumor-bearing mice were treated for 4 weeks with different doses of KU (15 mg/kg, 30 mg/kg, […]), qd) and Lapatinib KUA-1, 80 mg/kg, p.o., bid, 7 days/week. At the day-7 after treatment, the RTV TIC KU113 (15 mg/kg, 30 mg/kg) groups were <30%, and the tumor growth inhibition was >70%. but the RTV TIC was 31% and tumor growth inhibition rat was 69% in the lapatinib group. The same result was observed as well when it comes to the tumor weight. On day 28 after treatment, all the tumor-bearing mice were sacrificed, and all the tumor masses were harvested to weigh.

[1] = Rat pharmacokinetics studies (plasma); type: in vivo, Sprague Dawley rats
Description: Sample preparation: The test article each was dissolved in 10% DMSO and 90% of (40% HP-β-CD in deionized water) to yield concentration at 2 mg/mL for intravenous and oral administration.
Method development and plasma samples analysis were performed by Analytical Sciences Division of the Testing Facility by means of LC-MS/MS. The analytical results were confirmed using quality control samples for intra-assay variation (within day variation). The accuracy of >66% of the quality control samples was between 80-120% of the known value(s).
Each group consisted of 3 male Sprague Dawley rats (7-8 week old, 200-300 g body weight). The test articles were administered by a single bolus intravenous injection via the lateral tail vein or via oral gavage.
Blood samples (approximately 300 μl) were collected via retro-orbital puncture after anaesthesia using mixed gas (CO2:O2=7:3) into tubes containing EDTA-K3 anticoagulant at appropriate time points. 10 time points (Groups 1-2): Pre-dose and post-dose at 5 min, 15 min, 30 min, 1 h, 2 h, 4 h, 6 h, 8 h and 24 h.
Analysis: The PK blood samples were centrifuged at approximately 8000 rpm for (3 minutes at 2-8° C. and the resulting plasma were separated and stored frozen at approximately −80° C. (following separation, the plasma may be initially placed on ice prior to being stored in the −80° C. freezer). All the plasma samples were labeled with detailed information such as study number, animal number, matrix, time points of collection and date of collection.
Standard set of parameters including Area Under the Curve (AUC(0-t) and AUC(0-∞)), elimination half-live (T1/2), maximum plasma concentration (Cmax), time to reach maximum plasma concentration (Tmax), clearance (CL), and volume of distribution (Vz) will be calculated using noncompartmental analysis modules in FDA certified pharmacokinetic program WinNonlin Professional v5.2 (Pharsight, USA) by the Study Director. Furthermore, the Bioavailability will be estimated using the following formula:
• AUC(0-t) Area under the curve from the time of dosing to the last measurable concentration • AUC(0-∞) Area under the curve from the time of dosing extrapolated to infinity, based on the last observed concentration • CL Total body clearance, CL=Dose/AUC • Cmax Maximum observed concentration, occurring at Tmax • F Bioavailability • MRT(0-∞) Mean residence time from the time of dosing to infinity • Tmax Time of maximum observed concentration • T1/2 Terminal half-life=In(2)/λz • Vz Volume of distribution based on the terminal phase

[2] = male, Sprague Dawley, rat plasma, IV 1 mg/Kg
[3] = male, Sprague Dawley, rat plasma, PO 5 mg/Kg

SMILES: CN(C)C/C=C/C(=O)Nc1cc2c(Nc3ccc(F)c(Cl)c3)ncnc2cc1C#C[C@@H]1[C@H]2COC[C@@H]12 [Example 4, (E)-N-(4-(3-chloro-4-fluorophenylamino)-7-(2-((1R,5S,6s)-3-oxa-bicyclo[3.1.0]hexan-6-yl)ethynyl)quinazolin-6-yl)-4-(dimethylamino)but-2-enamide]
- IC50 (NCI-N87 cells; read-out: Cell Proliferation Inhibition IC50 (nM) NCI-N87): < 100 nM
- IC50 (NCI-N87 cells; read-out: IC50 NCI-N87 anti-proliferation): < 100 nM
- tolerability (side effect) (NCI-N87 xenograft; 15 mg/kg, po, qd): without predefined side effect
- body weight after dosing was stopped (NCI-N87 xenograft; 30 mg/kg group, by day 28): recovered to normal
- body weight effect (NCI-N87 xenograft; 30 mg/kg, p.o., qd, 7 days/week): body weight loss
- RTV T/C (NCI-N87 xenograft; 15 mg/kg po qd): < 30%
- tumor growth inhibition (NCI-N87 xenograft; 15 mg/kg po qd): > 70%
- RTV T/C (NCI-N87 xenograft; 30 mg/kg po qd): < 30%
- tumor growth inhibition (NCI-N87 xenograft; 30 mg/kg po qd): > 70%
- bioavailability ([1]; male, Sprague Dawley, plasma, rat, PO 5 mg/Kg, using AUC(0-t) instead of AUC(0-∞), read-out: calculated oral bioavailability): 80.5%
- AUC(0-inf) [1, 2]: 158 ng·h/mL
- AUC(0-t) [1, 2]: 135 ng·h/mL
- Cmax [1, 2]: 44.4 ng/mL
- clearance [1, 2]: 105 mL/min/kg
- half-life [1, 2]: 7.48 h
- Vd ([1]; male, Sprague Dawley, rat plasma, IV 1 mg/Kg, read-out: Vz): 20.5 L/kg
- AUC(0-inf) [1, 3]: 555 ng·h/mL
- AUC(0-t) [1, 3]: 542 ng·h/mL
- Cmax [1, 3]: 39.3 ng/mL
- half-life [1, 3]: 14.9 h
- CL ([1]; rat plasma, PO 5 mg/Kg): 150 mL/min/kg
- Vz ([1]; rat plasma, PO 5 mg/Kg): 58.1 L/kg
- F ([1]; rat, IV 1 mg/Kg): 100%
- F ([1]; rat, PO 5 mg/Kg, from AUC(0-∞)): 70.1%
- oral bioavailability and brain penetration (qualitative) ([1]; rat, oral administration): good oral bioavailability and brain penetration
